{"source": "patent US20260242320A1", "about": "“USE OF CANNABIDIOL DERIVATIVE IN PREPARATION OF MEDICAMENT” (priority 2023, published 2026)", "key": {"[1]": {"assay": "Y-maze test of short-term memory", "type": "in vivo, mice", "conditions": "CIAC001 20 mg/kg i.p.; THC 10 mg/kg i.p.", "protocol": "Mice were tested for short-term memory using a Y-maze task. Briefly, mice were placed into the Y-maze for 10 min once daily to habituate the apparatus for two consecutive days. After daily habituation, the mice were then treated with CIAC001 (20 mg/kg) or THC (10 mg/kg). On the 3rd day, mice were pretreated with CIAC001 or THC 45 min before the Y-maze test. Next, the “new arm” was blocked, and mice had 5 min to freely explore two arms (the “start arm” and the “old arm”, FIG. 8F). Mice were then removed from the Y-maze and placed into the cages for 2 min. During the test phase, mice were allowed to freely explore all three arms for 2 min, and the time spent in each arm was recorded and analyzed using the Noldus analyzing software. To eliminate olfactory interference, the Y-maze was wiped off with 70% alcohol after each test."}, "[2]": {"assay": "Respiratory rate determination", "type": "in vivo, mice", "conditions": "CIAC001 20 mg/kg i.p.; THC 10 mg/kg i.p.", "protocol": "Mice were intraperitoneally injected with 20 mg/kg CIAC001 or 10 mg/kg THC once daily. After 1 h, the mice were anesthetized with isoflurane by a small animal anesthesia machine (R500IE, RWD Life Science Co) on day 2 and day 5. The respiratory rate of mice was recorded three times within 20 s. The weights of mice were recorded every day."}}}
{"smiles": "CCCCCc1cc(O)c2c(c1)OC(C)(C)[C@@H]1CCC(C)=C[C@@H]21", "note": "[THC, reference compound]", "values": [{"measurement": "time spent on the new arm (Y maze)", "setting": "[1]", "value": "spent significantly less time on the new arm"}, {"measurement": "respiratory rate", "setting": "[2]", "value": "Respiratory depression was found"}]}
